Data: US20240041842A1, “PHARMACEUTICAL COMPOSITION FOR INHIBITING CANCER METASTASIS” (INDUSTRY-ACADEMIC COOPERATION FOUNDATION, YONSEI UNIVERSITY, priority 2021, published 2024)

What was measured:
[1] = system: TFEB; assay: Western blot / immunoprecipitation-immunoblot of TFEB (acetylated, phosphorylated, total); assay type: cell-based, human; settings: HBEC-KL; 1 uM FK506, 1 hour
Experimental: FIG. 11J illustrates a diagram of immunoblot results of the […] a control (left), and the immunoprecipitation-immunoblot result of TFEB acetylated HBEC-KL cells under the same conditions (right) is also shown,
(§1) Cells were harvested, washed with PBS, and lysed on ice with RIPA buffer containing protease and phophatase inhibitor cocktail (GenDEPOT). After 15 minutes of incubation, the cell lysates were centrifuged at 15,000 rpm at 4° C. for 10 minutes. Protein concentration was measured by Bradford assay (Bio-rad, 500-0006). Equal amounts of total protein were placed on an SDS gel electrophoresis and transferred to a PVDF membrane (Bio-rad). The membrane was blocked with 5% skim milk for 1 hour at room temperature and incubated overnight at 4° C. with primary antibody in a buffer containing 0.1% Tween-20. Subsequently, the membrane was washed three times with Tween-PBS buffer and incubated for 1 hour at room temperature using a secondary antibody diluted in blocking buffer containing 0.1% Tween-20. Subsequently, the membrane was washed three times for 10 minutes each using Tween-TBS. Densitometry of Western blots was measured using ImageJ software.
(§2) For immunoprecipitation, equal amounts of lysate and Co-IP buffer (40 mM HEPES, pH 7.4, 120 mM NaCl, 2 mM EDTA, 0.3% CHAPS (Sigma, 10810118001), 10 mM pyrophosphate (Sigma, 221368), 10 mM glycerophosphate (Sigma, G9422), 50 mM NaF, phosphatase and protease inhibitor mixture) were mixed. Cell lysates (1 μg protein) were incubated overnight at 4° C. on anti-FLAG® M2 Affinity Gel (Sigma, A2220) or anti-acetyl-lysine antibody coated agarose (ImmuneChem Pharmaceuticals, ICP0388). The immunoprecipitate was then washed three times in IP buffer, and the immunoprecipitated complex was dissolved and separated by boiling in IP buffer for 5 minutes.

[2] = system: TFEB (CLEAR network); assay: CLEAR motif-driven luciferase reporter assay; assay type: cell-based, human; settings: HBEC-KL; 1 uM FK506, 1 hour
Experimental: To compare the TFEB reporter activity with other cell lines (HBEC30KT, HBEC-K, and HBEC-KL), the pGL4.70 5× CLEAR Rluc and pSt4.14 Fluc vectors were transiently co-transfected and normalized luciferase activity was measured in Dual-Measured by Luciferase® Reporter Assay System (Promega, E1910),

[3] = system: Snail; assay: Western blot of Snail protein; assay type: cell-based, human; settings: for Snail expression: H2O2 or NAC for 6 hours; for Snail expression levels: BAPTA or calmidazolium for 1 hour; for Snail: BMS303141 24 hours, NDI-091143 24 hours, SB-204990 2 hours
Experimental: as §1
[…] For autophagy activation, cells were'treated with 2 μM rapamycin (Selleckchem, S1039) for 5 hours. Modulation of intracellular ROS was performed with N-acetyl-cysteine (10 mM) (Sigma, A7250), hydrogen peroxide solution (100 μM to 200 μM) (Sigma, 216763), or CDDO-ME NRF2 activator (50 nM, 100 nM) (Sellckchem, S8078) for 4 to 24 hours. Intercellular calcium signal control was performed for 1 hour using BAPTA-AM (20 μM) (Sigma, A1076) or Calmidazolium Chloride (2.5 μM) (Sigma, C3930). […] For TFEB protein phosphorylation, tacrolimus (1 μM) (Selleckchem, S5003) was treated for 1 hour. […] During siRNA treatment, each siRNA was treated to a concentration of 40 to 50 nM and treated together with Lipofectamine RNAiMax (Thermo Fisher Scientific, 13778150) for transformation, and were used for experiments 48 to 72 hours later. For cDNA treatment, each cDNA was treated to a concentration of 1 to 2 μg in a 6-well plate and treated with Lipofectamine 2000 (Thermo Fisher Scientific, 11668019) for transformation, and were used for experiments 24 hours later.

[4] = system: phospho-AMPK T172; assay: Western blot of phospho-AMPK T172; assay type: cell-based, human; settings: HBEC-KL cell line; for AMPK phosphorylation at T172: H2O2 or NAC for 6 hours; for AMPK phosphorylation: BAPTA or calmidazolium for 1 hour
Experimental: as §1
For inhibition of autophagy, cells were treated with 50 μM chloroquine (Sigma, C6628) for 12 to 24 hours. For autophagy activation, cells were'treated with 2 μM rapamycin (Selleckchem, S1039) for 5 hours. Modulation of intracellular ROS was performed with N-acetyl-cysteine (10 mM) (Sigma, A7250), hydrogen peroxide solution (100 μM to 200 μM) (Sigma, 216763), or CDDO-ME NRF2 activator (50 nM, 100 nM) (Sellckchem, S8078) for 4 to 24 hours. Intercellular calcium signal control was performed for 1 hour using BAPTA-AM (20 μM) (Sigma, A1076) or Calmidazolium Chloride (2.5 μM) (Sigma, C3930). C646 (25 μM) (Sigma, SML0002), curcumin (10 μM) (Selleckchem, S1848) CBP/p300 inhibitor or vorinostat ([…]) (Selleckchem, S1047) HDAC inhibitor was treated for 24 hours to modulate snail protein acetylation. and CHIR99021 GSK3b inhibitor (3 μM) (Sigma, SML1046) was treated for 24 hours to control Snail protein phosphorylation. For TFEB protein phosphorylation, tacrolimus (1 μM) (Selleckchem, S5003) was treated for 1 hour. […] During siRNA treatment, each siRNA was treated to a concentration of 40 to 50 nM and treated together with Lipofectamine RNAiMax (Thermo Fisher Scientific, 13778150) for transformation, and were used for experiments 48 to 72 hours later. For cDNA treatment, each cDNA was treated to a concentration of 1 to 2 μg in a 6-well plate and treated with Lipofectamine 2000 (Thermo Fisher Scientific, 11668019) for transformation, and were used for experiments 24 hours later.

[5] = system: HBEC-KL cell line; assay: Matrigel invasion assay, HBEC-KL cell line; assay type: cell-based, human; settings: HBEC-KL; 50 uM BMS303141 24 hours, 1 um NDI-091143 24 hours, 20 uM SB-204990 2 hours
Experimental: For the 2D invasion assay, the inserts were pre-coated with 300 μg/ml Matrigel (Coming, 354234). After staining with […] dye (Bio-Rad, 1450013), 1×10^5 live cells per 8-um-pore cell-culture insert (Costar. 3422) were seeded in 0.5% ACL medium. 10% ACL medium was added to the outside of the insert. In the case of lung cancer and pancreatic cancer cell lines, after inoculation in 1% RPMI medium, 20% RPMI medium was added to the outside of the insert. Plates were incubated for 24 hours at 37° C. After incubation, the insert was fixed with 3.7% PFA, washed, stained with 0.4% crystal violet, and the upper membrane was washed and dried.

[6] = system: A549-luc cells; assay: A549-luc tail vein injection metastasis model; assay type: in vivo; settings: nude mice; 100 mg/kg, qd p.o 20 consecutive days
Experimental: FIG. 13E illustrates role of STO-609 on cancer metastasis in an A549-luc tail vein injection model. After intravenous injection of A549-luc cells into nude mice, vehicle or STO-609 (25 mg/kg and 100 mg/kg qd) was injected for 28 days starting one day after the injection. A picture taken of a bioluminescent image when 4 weeks have elapsed after injection is shown (above). Analysis results of the total metastasis burden by photonic flux are shown (below). FIG. 13H illustrates the role of BMS303141 on cancer metastasis in an A549-luc tail vein injection model. A549-luc cells were intravenously injected into nude mice, and then vehicle or BMS303141 (100 mg/kg q.d.) was injected for 20 days starting one day after the injection. A bioluminescence image when 3 weeks have elapsed after injection is shown. 7- to 9-week-old BALB/c-nu Sic mice were obtained from SLC, Inc. (Shizuoka, Japan) and used, A549-luc cells (#JCRB1414) or SNAI1 shRNA-mediated knockdown A549-luc cells were injected at 3-4.5×10^6 cells through the tail vein of mice. After 3 to 4 weeks, metastasis was monitored by bioluminescence imaging analysis. More specifically, after injecting D-luciferin (75 mg/kg) (PerkinElmer, 122799) into the abdominal cavity of the mouse, images were obtained using an IVIS imaging system (IVIS 200, PerkinElmer, Waltham, MA, USA) in the supine position. Lung tissue was obtained for histopathological analysis. Images were analyzed using commercially available software (ImageScope; Aperio Technologies). In the STO-609 efficacy test, STO-609 (25 mg, 100 mg/kg/day) was orally administered to mice on the day of injection. In the BMS303141 efficacy test, BMS303141 (100 mg/kg/day) was orally administered to mice on the day of injection.

[7] = system: Snail; assay: Immunoprecipitation-immunoblot of phosphorylated/acetylated or K48 polyubiquitinated Snail in A549 cells; assay type: cell-based, human; settings: 25 uM C646 or 3 uM SAHA
Experimental: FIG. 9K illustrates the immunoprecipitation-immunoblot result of phosphorylated/acetylated or K48 polyubiquitinated Snail assay after transfection of wild-type Snail (pFLAG-Snail WT) or acetylation-defective Snail mutant (pFLAG-SnailK146R) into A549 cells and/or treatment with 25 uM C646.
FIG. 9L illustrates the immunoprecipitation-immunoblot results of the polyubiquitinated Snail assay after transfection of HA-ubiquitin and wild-type Snail (pFLAG-Snail WT) or acetylation-defective Snail mutant (pFLAG-SnailK146R) into A549 cells and/or treatment with 25 uM C646 for 2 hours (left) and/or treatment of 3 uM SAHA for 5 hours (right).
as §2

[8] = system: LC3; assay: Autophagic flux (LC3 Western blot, mRFP-GFP-LC3 lysosomal delivery assay); assay type: cell-based, human; settings: HBEC-KL cell line; NAC or 50 uM STO-609, 24 hours
Experimental: as §1, with “Representative GFP-LC3, RFP-LC3 and overlapping images are shown. In addition, red puncta (mRFP+/GFP−) and yellow puncta (mRFP+/GFP+) per cell were quantified and graphed (n=15 cells/treatment). Cells” for “Cells”

[9] = HBEC-KL cell line, 20 nM bortezomib

In the case of `C=CC[C@@H]1/C=C(\C)C[C@H](C)C[C@H](OC)[C@H]2O[C@@](O)(C(=O)C(=O)N3CCCC[C@H]3C(=O)O[C@H](/C(C)=C/[C@@H]3CC[C@@H](O)[C@H](OC)C3)[C@H](C)[C@@H](O)CC1=O)[C@H](C)C[C@@H]2OC` [FK506, tacrolimus], the phospho-TFEB [1] was “increasing” and the CLEAR activity [2] was “decreased”.

For `CC(C)C[C@H](NC(=O)[C@H](Cc1ccccc1)NC(=O)c1cnccn1)B(O)O` [bortezomib], the “reduction of Snail by STO-609, with bortezomib also treated” value [3, 9] was “restored”, the “reduction of Snail by chloroquine (CQ), with bortezomib also treated” value [3, 9] was “restored” and the “Snail reduction caused by the ACLY inhibitor, with Bortezomib” value ([3]; HBEC-KL, 20 nM bortezomib for 3 hours) was “restored”.

In the case of `OO` [H2O2, hydrogen peroxide], the “AMPK phosphorylation at T172” value [4] was “increased” and the Snail expression ([3]; HBEC-KL cell line) was “increased”.

With `COC(=O)[C@]12CCC(C)(C)C[C@H]1[C@H]1C(=O)C=C3[C@@]4(C)C=C(C#N)C(=O)C(C)(C)[C@@H]4CC[C@@]3(C)[C@]1(C)CC2` [CDDO-ME] the “level of phospho-AMPK T172” value ([4]; CDDO-ME for 24 hours) was “reduced”.

With `O=C(O)CN(CC(=O)O)c1ccccc1OCCOc1ccccc1N(CC(=O)O)CC(=O)O` [BAPTA] the AMPK phosphorylation [4] was “reduced” and the Snail expression levels ([3]; HBEC-KL cell line) was “reduced”.

For `O=C(O)C[C@@]1(O)C[C@@H](CCCCCCc2ccc(Cl)cc2Cl)OC1=O` [SB-204990], the Matrigel invasion [5] was “reduced” and the Snail ([3]; HBEC-KL) was “reduced”.

For `COC(=O)c1cc(Cl)c(O)c(S(=O)(=O)Nc2cc(-c3ccccc3)c(F)cc2F)c1` [NDI-091143], the Matrigel invasion [5] was “reduced” and the Snail ([3]; HBEC-KL) was “reduced”.

In the case of `Clc1ccc(C(c2ccc(Cl)cc2)n2cc[n+](CC(OCc3ccc(Cl)cc3Cl)c3ccc(Cl)cc3Cl)c2)cc1` (stereo not shown) [calmidazolium], the AMPK phosphorylation [4] was “reduced” and the Snail expression levels ([3]; HBEC-KL cell line) was “reduced”.

With `COc1ccc(-c2ccccc2)cc1NS(=O)(=O)c1cc(Cl)cc(Cl)c1O` [BMS303141] the “total degree of metastasis” value [6] was “reduced”, the Matrigel invasion [5] was “reduced” and the Snail ([3]; HBEC-KL) was “reduced”.

With `CC1=NN(c2ccc(C(=O)O)cc2)C(=O)/C1=C\c1ccc(-c2cc(C)c(C)cc2[N+](=O)[O-])o1` [C646] the “K48 polyubiquitination of wild-type Snail” value ([7]; pFLAG-Snail WT) was “increased”, the “phosphorylation of wild-type Snail” value ([7]; pFLAG-Snail WT) was “increased” and the “phosphorylation and acetylation of K146R Snail” value ([7]; pFLAG-SnailK146R) was “did not affect”.

`CC(=O)N[C@@H](CS)C(=O)O` [NAC, N-acetyl-cysteine] was tested, and the “AMPK phosphorylation at T172” value [4] was “decreased”, the autophagic flux [8] was “decreased” and the Snail expression ([3]; HBEC-KL cell line) was “decreased”.
